Test results reported in ChEMBL document CHEMBL4428037 (J Med Chem, 2016).
The source made the active and inactive calls. The rule behind the calls is not given here.

Experiments:
HepG2 = assay: Growth inhibition of human HepG2 cells incubated for 72 hrs by MTT assay; type: functional, cell-based; conditions: HepG2, 72 h
A549 [1] = assay: Induction of cell cycle arrest in human A549 cells assessed as accumulation at G2/M phase at 40 nM incubated for 24 hrs by propidium iodide staining based FACS flow cytometry; type: functional
A549 [2] = assay: Induction of apoptosis in human A549 cells assessed as late apoptotic cells level at 20 nM incubated for 24 hrs by Annexin V-FITC/PI staining based FACS flow cytometry (reference value: 2.15%); type: functional
[3] = molecular target: T1, Tubulin alpha (Homo sapiens) (UniProt P0DPH7+P68366+Q71U36+P68363+Q9BQE3+Q6PEY2+A6NHL2+Q9NY65); assay: Inhibition of alpha tubulin polymerization in human A549 cells assessed as induction of cell border shrinkage of microtubules at 40 nM by Immunofluorescent staining based fluorescence microscopy
A549 [4] = assay: Induction of apoptosis in human A549 cells assessed as early apoptotic cells level at 20 nM incubated for 24 hrs by Annexin V-FITC/PI staining based FACS flow cytometry (reference value: 0.65%); type: functional
HeLa = assay: Growth inhibition of human HeLa cells incubated for 72 hrs by MTT assay; type: functional, cell-based
[5] = system: Non-small cell lung cancer cell line; assay: Antitumor activity against human NSCLC xenografted in Balb/c-nu mouse assessed as induction of delay in tumor volume increase at 12.5 mg/kg, ip dosed every day for 21 consecutive days and measured every 3 days; type: functional, organism-based
A549 [6] = assay: Induction of apoptosis in human A549 cells assessed as late apoptotic cells level at 10 nM incubated for 24 hrs by Annexin V-FITC/PI staining based FACS flow cytometry (reference value: 2.15%); type: functional
HUVEC [7] = assay: Toxicity in HUVEC assessed as effect on cell proliferation at 10 to 40 nM incubated for 8 hrs; type: cell-based; conditions: human, 0.04 µM
A549 [8] = assay: Induction of apoptosis in human A549 cells assessed as increase in cleaved caspase-3 level incubated for 24 hrs by Western blotting; type: functional, cell-based
MCF7 = assay: cells; conditions: Homo sapiens, MCF7, 72 h
[9] = Toxicity in human NSCLC xenografted Balb/c-nu mouse assessed as induction of adverse effects at 50 mg/kg, ip dosed every day for 21 consecutive days; type: organism-based; conditions: in vivo
A549 [10] = assay: Reduction in p-cdc2 expression in human A549 cells incubated for 24 hrs by Western blotting; type: functional, cell-based
A549 [11] = assay: Induction of apoptosis in human A549 cells assessed as induction of chromatin condensation at 40 nM incubated for 24 hrs microscopy; type: functional, cell-based
A549 [12] = assay: Induction of apoptosis in human A549 cells assessed as live cells level at 20 nM incubated for 24 hrs by Annexin V-FITC/PI staining based FACS flow cytometry (reference value: 96.83%); type: functional
[13] = Toxicity in human NSCLC xenografted Balb/c-nu mouse assessed as induction of adverse effects at 12.5 mg/kg, ip dosed every day for 21 consecutive days; type: organism-based; conditions: in vivo
A549 [14] = assay: Increase in cyclin B1 expression in human A549 cells incubated for 24 hrs by Western blotting; type: functional, cell-based
[15] = molecular target: T1, Tubulin alpha (Homo sapiens); assay: Inhibition of alpha tubulin polymerization in human A549 cells assessed as induction of microtubule network dis-organization at 40 nM by Immunofluorescent staining based fluorescence microscopy; type: cell-based
HUVEC [16] = assay: Inhibition of capillary tube formation in HUVEC assessed as reduction in tube-like structures formation at 20 nM incubated for 8 hrs by fluorescence microscopy based 3D-matrigel assay; type: functional; conditions: Homo sapiens
A549 [17] = assay: Induction of apoptosis in human A549 cells assessed as increase in PARP cleavage level incubated for 24 hrs by Western blotting; type: functional, cell-based
[18] = system: Non-small cell lung cancer cell line; assay: Antitumor activity against human NSCLC xenografted in Balb/c-nu mouse assessed as induction of delay in tumor volume increase at 50 mg/kg, ip dosed every day for 21 consecutive days and measured every 3 days; type: functional, organism-based
A549 [19] = assay: Induction of apoptosis in human A549 cells assessed as necrotic cells level at 40 nM incubated for 24 hrs by Annexin V-FITC/PI staining based FACS flow cytometry (reference value: 0.37%); type: functional
[20] = Toxicity in human NSCLC xenografted Balb/c-nu mouse assessed as effect on body weight at 50 mg/kg, ip dosed every day for 21 consecutive days; type: organism-based; conditions: in vivo
HUVEC [21] = assay: Inhibition of capillary tube formation in HUVEC assessed as reduction in tube-like structures formation at 10 nM incubated for 8 hrs by fluorescence microscopy based 3D-matrigel assay; type: functional; conditions: Homo sapiens
NCI-H460 = assay: Inhibition of colony formation in human NCI-H460 cells incubated for 9 days by crystal violet staining based assay; type: functional, cell-based
[22] = system: Non-small cell lung cancer cell line; assay: Antitumor activity against human NSCLC xenografted in Balb/c-nu mouse assessed as inhibition of tumor growth at 50 mg/kg, ip dosed every day for 21 consecutive days and measured every 3 days; type: functional; conditions: 72 h, read-out: TGI
A549 [23] = assay: Induction of apoptosis in human A549 cells assessed as early apoptotic cells level at 40 nM incubated for 24 hrs by Annexin V-FITC/PI staining based FACS flow cytometry (reference value: 0.65%); type: functional
[24] = Toxicity in human NSCLC xenografted Balb/c-nu mouse assessed as effect on body weight at 12.5 mg/kg, ip dosed every day for 21 consecutive days; type: organism-based; conditions: in vivo
A549 [25] = assay: Induction of apoptosis in human A549 cells assessed as live cells level at 10 nM incubated for 24 hrs by Annexin V-FITC/PI staining based FACS flow cytometry (reference value: 96.83%); type: functional
HUVEC [26] = assay: Inhibition of capillary tube formation in HUVEC assessed as reduction in tube-like structures formation incubated for 8 hrs by fluorescence microscopy based 3D-matrigel assay; type: functional, cell-based; conditions: Homo sapiens
A549 [27] = assay: Induction of apoptosis in human A549 cells assessed as necrotic cells level at 10 nM incubated for 24 hrs by Annexin V-FITC/PI staining based FACS flow cytometry (reference value: 0.37%); type: functional
Tubulin (Sus scrofa) [28] = molecular target: T2, Tubulin (Sus scrofa) (UniProt P02554+P02550); assay: Displacement of [3H]colchicine from biotinylated porcine tubulin at 1 uM incubated for 2 hrs by competition scintillation proximity; type: protein assay
Tubulin (Sus scrofa) [29] = molecular target: T2, Tubulin (Sus scrofa); assay: Displacement of [3H]colchicine from biotinylated porcine tubulin at 5 uM incubated for 2 hrs by competition scintillation proximity; type: protein assay
A549 [30] = assay: Induction of apoptosis in human A549 cells assessed as induction of cytoplasmic membrane blebbing at 40 nM incubated for 24 hrs microscopy; type: functional, cell-based
[31] = system: Non-small cell lung cancer cell line; assay: Antitumor activity against human NSCLC xenografted in Balb/c-nu mouse assessed as inhibition of tumor growth at 12.5 mg/kg, ip dosed every day for 21 consecutive days and measured every 3 days; type: functional; conditions: 72 h, read-out: TGI
A549 [32] = assay: Inhibition of colony formation in human A549 cells incubated for 9 days by crystal violet staining based assay; type: functional, cell-based
A549 [33] = assay: Induction of apoptosis in human A549 cells assessed as induction of cell shrinkage at 40 nM incubated for 24 hrs microscopy; type: functional, cell-based
A549 [34] = assay: Inhibition of colony formation in human A549 cells at 10 nM incubated for 9 days by crystal violet staining based assay; type: functional; conditions: A549, 216 h

- IC50 (HepG2): 26 nM
- inhibition [3]: Active
- IC50 (HeLa): 7.4 nM
- IC50 (MCF7): 32.3 nM
- inhibition [15]: Active
- inhibition (Tubulin (Sus scrofa) [28]): 37%
- inhibition (Tubulin (Sus scrofa) [29]): 67%
SMILES: CCOc1cccc(Nc2nn(C)c3c2Cc2cc(OCC)c(OCC(N)=O)cc2-3)c1
- Activity (A549 [1]): 68.1%
- Activity (A549 [2]): 4.57%
- Activity (A549 [4]): 3.78%
- Activity [5]: Active
- Activity (A549 [6]): 2.7%
- Activity (HUVEC [7]): Non-Toxic
- Activity (A549 [8]): Dose-dependent effect
- Activity [9]: Non-Toxic
- Activity (A549 [10]): Dose-dependent effect
- Activity (A549 [11]): Active
- Activity (A549 [12]): 90.81%
- Activity [13]: Non-Toxic
- Activity (A549 [14]): Dose-dependent effect
- inhibition at 0.02 µM (HUVEC [16]): 58%
- Activity (A549 [17]): Dose-dependent effect
- Activity [18]: Active
- Activity (A549 [19]): 1.23%
- Activity [20]: Non-Toxic
- inhibition at 0.01 µM (HUVEC [21]): 39%
- inhibition (NCI-H460): Dose-dependent effect
- inhibition in vivo at 50 mg/kg [22]: 59.1%
- Activity (A549 [23]): 9.06%
- Activity [24]: Non-Toxic
- Activity (A549 [25]): 95.66%
- inhibition (HUVEC [26]): Dose-dependent effect
- Activity (A549 [27]): 0.62%
- Activity (A549 [30]): Active
- inhibition in vivo at 12.5 mg/kg [31]: 33.8%
- inhibition (A549 [32]): Dose-dependent effect
- Activity (A549 [33]): Active
- inhibition at 0.01 µM (A549 [34]): 91%
